In US20250042882A1, “CERTAIN 3-AZABICYCLO[3.1.0]HEXANES AS GLP-1 RECEPTOR MODULATORS” (AstraZeneca AB, priority 2021, published 2025) one finds EC50 data, which are given here for eleven compounds.

For assay [1], the target named is T1, GLP-1R (Homo sapiens, UniProt P43220).
T1 construct: host or cells: EndoC-βH1 human pancreatic beta cell line
The experiment in a line: EndoC cAMP Accumulation Assay. Type of assay: cell-based. The following applies: EndoC-βH1 human pancreatic β cell line; HTRF cAMP accumulation. The source says:
EndoC cAMP Accumulation Assay
A HTRF cAMP assay (cAMP Gs dynamic kit; CisoBio Cat #62AM4PEJ) was used to identify agonists of GLP-1R in a pancreatic insulinoma cell line (EndoC-⊕H1). […] EndoC-PHlcells have detectable GLP-1R messenger ribonucleic acid (mRNA) as detected by quantitative polymerase chain reaction (qPCR). […] The EndoC-PH1 cell line is a valid model of human beta cells and applicable for screenings to identify novel drug target candidates (Mol. Metab., 2018, 8, 144-157). CisBio HTRF cAMP kits are based on a competitive immunoassay using cryptate-labelled anti-cAMP antibody and d2-labeled cAMP. The detection kit is intended for the direct quantitative determination of cAMP. The specific signal (i.e. energy transfer) is inversely proportional to the concentration of cAMP in the standard or sample. Test compounds (10 mM in DMSO) were diluted into assay buffer (HBSS (Sigma #H8264) supplemented with 25 mM HEPES (Gibco #15630, pH 7.4), 0.1% BSA (Sigma #A3059) and 0.5 mM IBMX (Sigma #I7018) included fresh on the day of the assay) into 96 well U-bottom plates (Greiner #650201). Diluted compounds were transferred to ECHO source polypropylene plates (Labcyte #P-05525) and dose response curves were dispensed acoustically using ECHO 550 into black shallow-well u-bottom 384-well HTRF Assay Plates (Corning 4514).
Cryovials of EndoC-H1 (supplied at 1×10e^7 cells/vial) were used directly for screening. The cryovials and were removed from N2(l) and thawed rapidly in a 37° C. water bath. The cells were resuspended in assay buffer and centrifuged at 300 g for 5 min. Cells were resuspended in assay buffer at the appropriate concentration, typically at 12e5 cells per mL (3000 cells per well, dependent on cell batch) and 2.5 μL diluted cells were added to all wells of destination plate by Multidrop combi reagent dispenser (Thermofisher). The plates were incubated at rt for 30 min. The assay was stopped by adding 2.5 μL anti-cAMP cryptate solution to all wells and 2.5 μL cAMP-d2 solution (both diluted 1:20 in lysis buffer) to columns 1-22 by Combi drop. A volume of 2.5 μL cAMP-d2 solution was added to wells E23 to P24 and 2.5 μL lysis buffer added to wells A23 to D24 by multichannel pipette. The plates were incubated at rt for 1 h and read on an Envision plate reader using excitation wavelength of 320 mn and emission of 590 nm and 660 nm.
Raw data from Envision is converted to % DeltaF according to the manufacturer's instructions. Dose response curves are analysed via 4-Parameter Logistical Analysis and assay plate Z′ values obtained. Samples are graphed as percentage (%) activation plots compared to GIP (1-42, Bachem H-5645) with assay window defined by negative control as basal cell cAMP levels and positive control are defined by maximum GIP (82.5 nM) signal. GLP-1 (7-36 amide, Bachem H-6795) dose response curve was included on all plates.
In general terms: Time-resolved FRET reads energy transfer from a long-lived donor to a nearby acceptor.

Assay [2] addresses T2, human GLP-1R receptor (Homo sapiens, UniProt P43220, L260F).
T2 construct: expressed in transfected cells; host or cells: CHO-K1 (ATCC CCL-61)
The experiment in a line: CHOK1 GLP-1R cAMP Assay. Type of assay: cell-based. Conditions: CHO-K1 cell line stably expressing human GLP-1R (Leu260Phe variant); HTRF cAMP; agonist activity. On the procedure: A cell line stably expressing the human GLP-1R receptor (NM_002062.5, including the naturally-occurring variant Leu260Phe) in a CHO-K1 (ATCC® CCL-61™) was used for assay.
GLP-1 receptor mediated agonist activity was determined in a cell-based assay measuring cyclic adenosine monophosphate (cAMP) levels in cells using Homogeneous Time-Resolved Fluorescence (HTRF) cAMP detection kit (CisBio catalog #62AM4PEC, cAMP Gs Dynamic range kit). The cAMP detection method is based on a competitive immunoassay, in which cAMP produced by the cells and cAMP labeled with the dye d2 compete for binding to a Europium-Cryptate-labeled anti-cAMP antibody. The specific HTRF signal is inversely proportional to the concentration of cAMP.
Compounds were added to individual well in 384 well-assay plates (Greiner #784076) using an Echo (LabCyte) dispenser from 10 mM stocks. Varying concentration of compounds were added to wells, and DMSO was used to normalize each well to a volume of 100 nL. A dose response curve of GLP-1(7-36)NH2 (Bachem H-6795) was included in each run. 5 μL of cAMP concentration response standards are applied in specified wells in the assay plates. Cryo-preserved cells are thawed and resuspended in assay buffer pre-heated to 37° C. (20 mM HEPES pH 7.4, 1× Hank's Balanced Salt Solution (HBSS, Life Technologies #14065) supplemented with 0.1% (w/v) bovine serum albumin (Sigma, A-7030). Cells were centrifuged at 250*g for 5 min at rt, and resuspended in room tempered assay buffer to a final density of 0.16*10^6 cell/mL, to deliver 800 cells/well. 5 μL of assay buffer with 1 mM 3-isobutyl-1-methylxanthin (IBMX; Sigma cat I-7018) was dispensed per well in assay plates using a multidrop combi (Thermo Scientific) subsequently 5 μL of cell suspension was distributed to relevant wells in the assay using a multidrop dispenser. Assay plates were incubated 20 min at rt.
Detection reagents, Europium-Cryptate-labeled anti-cAMP antibody and cAMP labeled with the dye d2, are diluted in lysis buffer, provided by the manufacturer. 5 μL of each detection reagent is supplemented to each assay well using a multidrop dispenser. Assay plates are incubated in the dark for at least one h. The HTRF signal is measured using the HTRF module (excitation: 337 nm, emission A: 665 nm and emission B: 620 nm) in Pherastar FSX (BMG Labtech).
Raw data were converted to pM cAMP using the cAMP standard curve included in each run.
Converted data were further analyzed in Genedata Screener (Genedata) and EC50 determinations were made from agonist dose-response curves analyzed with a curve fitting program using a 4-parameter logistic dose response equation (Equation y=A+((B−A)/1+((C/x)^D))) where A is no stimulation, B is full stimulation, C is the EC50 and D is the Hill slope). The percent effect was determined relative to a saturating concentration of a full GLP-1R agonist (GLP-1(7-36)NH2 has 100% effect in this assay setup).

T2 sequence (P43220 24-463 L260F): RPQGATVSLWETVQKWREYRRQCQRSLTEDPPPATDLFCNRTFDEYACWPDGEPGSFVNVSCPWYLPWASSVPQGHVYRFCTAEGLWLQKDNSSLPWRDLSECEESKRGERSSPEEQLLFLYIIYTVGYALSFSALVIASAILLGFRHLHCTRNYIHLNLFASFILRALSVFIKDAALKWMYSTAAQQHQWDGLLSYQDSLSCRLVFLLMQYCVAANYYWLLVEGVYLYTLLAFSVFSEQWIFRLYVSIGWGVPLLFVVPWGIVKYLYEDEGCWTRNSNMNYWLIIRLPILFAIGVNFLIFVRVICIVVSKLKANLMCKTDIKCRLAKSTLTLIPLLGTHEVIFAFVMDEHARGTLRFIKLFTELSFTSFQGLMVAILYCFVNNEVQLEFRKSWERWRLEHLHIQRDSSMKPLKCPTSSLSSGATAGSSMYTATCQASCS
T1 sequence (P43220 24-463): as the sequence (P43220 24-463 L260F) above, with F237L counted along it

Broadly, the EC50 is the concentration giving half of the maximal effect. `CC1(c2ccc(Cl)cn2)Oc2cccc([C@H]3[C@@H]4CN(Cc5nc6ccc(C(=O)O)cc6n5CC5CCO5)C[C@@H]43)c2O1` (stereo partly drawn) [Example 3, 2-(((1R,5S,6R)-6-(2-(5-Chloropyridin-2-yl)-2-methylbenzo[d][1,3]dioxol-4-yl)-3-azabicyclo[3.1.0]hexan-3-yl)methyl)-1-(((S)-oxetan-2-yl)methyl)-1H-benzo[d]imidazole-6-carboxylic acid]: the EC50 in assay [1] stood at 170 nM; in assay [2], 260 nM.

Consider `COc1cc(C(=O)O)cc2c1nc(CN1C[C@@H]3[C@H](C1)[C@H]3c1c(F)ccc3c1OC(C)(c1ccc(Cl)cn1)O3)n2C[C@@H]1CCO1` (stereo partly drawn) [Example 6, 2-(((1R,5S,6R)-6-(2-(5-Chloropyridin-2-yl)-5-fluoro-2-methylbenzo[d][1,3]dioxol-4-yl)-3-azabicyclo[3.1.0]hexan-3-yl)methyl)-4-methoxy-1-(((S)-oxetan-2-yl)methyl)-1H-benzo[d]imidazole-6-carboxylic acid], for which the EC50 in assay [1] turned out to be 19 nM; in assay [2], 31 nM.

Consider `C[C@@]1(c2ccc(Cl)cn2)Oc2cccc([C@H]3[C@@H]4CN(Cc5nc6c(F)cc(C(=O)O)cc6n5CCn5cccn5)C[C@@H]43)c2O1` (single isomer, unassigned) [Example 7, 1-(2-(1H-Pyrazol-1-yl)ethyl)-2-(((1R,5S,6s)-6-((R*)-2-(5-chloropyridin-2-yl)-2-methylbenzo[d][1,3]dioxol-4-yl)-3-azabicyclo[3.1.0]hexan-3-yl)methyl)-4-fluoro-1H-benzo[d]imidazole-6-carboxylic acid], for which the EC50 in assay [1] stood at 150 nM; in assay [2] it was 260 nM.

For `CCn1cncc1Cn1c(CN2C[C@@H]3[C@H](C2)[C@H]3c2cccc3c2O[C@](C)(c2ccc(Cl)cn2)O3)nc2c(OC)cc(C(=O)O)cc21` (relative stereo) [Example 13, 2-((1R,5S,6s)-6-(R*)-2-(5-Chloropyridin-2-yl)-2-methylbenzo[d][1,3]dioxol-4-yl)-3-azabicyclo[3.1.0]hexan-3-yl)methyl)-1-((1-ethyl-1H-imidazol-5-yl)methyl)-4-methoxy-1H-benzo[d]imidazole-6-carboxylic acid], the EC50 in assay [1] is 4.1 nM; in assay [2], 8.1 nM.

On to “4-Chloro-2-(((1R,5S,6R)-6-((R*)-2-(5-chloropyridin-2-yl)-5-fluoro-2-methylbenzo[d][1,3]dioxol-4-yl)-3-azabicyclo[3.1.0]hexan-3-yl)methyl)-1-(((S)-oxetan-2-yl)methyl)-1H-benzo[d]imidazole-6-carboxylic acid [Example 8a]”, for which the figures for the EC50 in assay [1] and in assay [2] were 280 nM and 150 nM, respectively.

Regarding `C[C@@]1(c2ccc(Cl)cn2)Oc2cccc([C@H]3[C@@H]4CN(Cc5nc6c(F)cc(C(=O)O)cc6n5C[C@@H]5CCO5)C[C@@H]43)c2O1` (relative stereo) [Example 9, 2-(((1R,5S,6R)-6-((R*)-2-(5-Chloropyridin-2-yl)-2-methylbenzo[d][1,3]dioxol-4-yl)-3-azabicyclo[3.1.0]hexan-3-yl)methyl)-4-fluoro-1-(((S)-oxetan-2-yl)methyl)-1H-benzo[d]imidazole-6-carboxylic acid], the 50% effective concentration (EC50) in assay [1] was 58 nM; in assay [2] it was 40 nM.

Regarding `CCn1cncc1Cn1c(CN2C[C@@H]3[C@H](C2)[C@H]3c2cccc3c2O[C@](C)(c2ccc(Cl)cn2)O3)nc2c(F)cc(C(=O)O)cc21` (relative stereo) [Example 14, 2-((1R,5S,6s)-6-(R*)-2-(5-Chloropyridin-2-yl)-2-methylbenzo[d][1,3]dioxol-4-yl)-3-azabicyclo[3.1.0]hexan-3-yl)methyl)-1-((1-ethyl-1H-imidazol-5-yl)methyl)-4-fluoro-1H-benzo[d]imidazole-6-carboxylic acid], the EC50 in assay [1] was found to be 5.9 nM; in assay [2], 26 nM.

For “4-Chloro-2-(((1R,5S,6R)-6-((R*)-2-(5-chloropyridin-2-yl)-5-fluoro-2-methylbenzo[d][1,3]dioxol-4-yl)-3-azabicyclo[3.1.0]hexan-3-yl)methyl)-1-(((S)-oxetan-2-yl)methyl)-1H-benzo[d]imidazole-6-carboxylic acid [Example 8b]”, the EC50 in assay [1] was 9.6 nM; in assay [2], 8.2 nM.

As to `C[C@@]1(c2ccc(Cl)cn2)Oc2cccc([C@H]3[C@@H]4CN(Cc5nc6c(Cl)cc(C(=O)O)cc6n5CC5CCO5)C[C@@H]43)c2O1` (relative stereo) [Example 5, 4-Chloro-2-(((1R,5S,6R)-6-((R*)-2-(5-chloropyridin-2-yl)-2-methylbenzo[d][1,3]dioxol-4-yl)-3-azabicyclo[3.1.0]hexan-3-yl)methyl)-1-(((S)-oxetan-2-yl)methyl)-1H-benzo[d]imidazole-6-carboxylic acid], the results for the EC50 in assay [1] and in assay [2] were 16 nM and 24 nM, respectively.

For the compound “2-(((1R,5S,6R)-6-((R*)-2-(5-Chloropyridin-2-yl)-5-fluoro-2-methylbenzo[d][1,3]dioxol-4-yl)-3-azabicyclo[3.1.0]hexan-3-yl)methyl)-4-fluoro-1-(((S)-oxetan-2-yl)methyl)-1H-benzo[d]imidazole-6-carboxylic acid [Example 10b]”, the figures for the EC50 in assay [1] and in assay [2] were 1900 nM and 680 nM, respectively.

With `COc1cc(C(=O)O)cc2c1nc(CN1C[C@@H]3[C@H](C1)[C@H]3c1cccc3c1O[C@](C)(c1ccc(Cl)cn1)O3)n2CC1CCO1` (single isomer, unassigned) [Example 4a, 2-(((1R,5S,6R)-6-((R*)-2-(5-Chloropyridin-2-yl)-2-methylbenzo[d][1,3]dioxol-4-yl)-3-azabicyclo[3.1.0]hexan-3-yl)methyl)-4-methoxy-1-(((S)-oxetan-2-yl)methyl)-1H-benzo[d]imidazole-6-carboxylic acid], the 50% effective concentration (EC50) in assay [1] came to 350 nM; in assay [2] it was 280 nM.
